Laboratory results taken from patent US9708314B2, “Heterocyclic amide compound” (NISSAN CHEMICAL INDUSTRIES, LTD., priority 2013, dated 2017).

How the values were obtained:
Assay type in all cases: in vivo
Apera spica-venti. = assay: Test Example 4: herbicidal effect by application to foliage (diluvial soil, plastic box); details: for L (Apera spica-venti.) herbicidal effect grade: Application herbicide amount 320 g/ha, foliage application
In short: (§1)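 Emulsion-formulated compound, diluted to a predetermined g/ha dose, applied by small sprayer to leaves and stems of 14-day-old seedlings grown in sterilized diluvial soil. Effect rated on 0–5 herbicidal-ratio scale three weeks on.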

Lolium multiflorum Lam. = assay: as above; details: for K (Lolium multiflorum Lam.) herbicidal effect grade: Application herbicide amount 320 g/ha, foliage application
In short: as §1

Avena fatua = assay: as above; details: for I (Avena fatua) herbicidal effect grade: Application herbicide amount 320 g/ha, foliage application
In short: as §1

Veronica persica = assay: as above; details: for R (Veronica persica) herbicidal effect grade: Application herbicide amount 320 g/ha, foliage application
In short: as §1

Amaranthus retroflexus = assay: as above; details: for N (Amaranthus retroflexus) herbicidal effect grade: Application herbicide amount 320 g/ha, foliage application
In short: as §1

Setaria viridis = assay: as above; details: for G (Setaria viridis) herbicidal effect grade: Application herbicide amount 320 g/ha, foliage application
In short: as §1

Alopecurus myosuroides = assay: as above; details: for J (Alopecurus myosuroides) herbicidal effect grade: Application herbicide amount 320 g/ha, foliage application
In short: as §1

[1] = test system: Echinochloa crus-galli var. crus-galli; assay: as above; details: for H (Echinochloa crus-galli var. crus-galli) herbicidal effect grade: Application herbicide amount 320 g/ha, foliage application
In short: as §1

Chenopodium album = assay: as above; details: for O (Chenopodium album) herbicidal effect grade: Application herbicide amount 320 g/ha, foliage application
In short: as §1

Stellaria media = assay: as above; details: for P (Stellaria media) herbicidal effect grade: Application herbicide amount 320 g/ha, foliage application
In short: as §1

Abutilon theophrasti = assay: as above; details: for M (Abutilon theophrasti) herbicidal effect grade: Application herbicide amount 320 g/ha, foliage application
In short: as §1

Galium spurium = assay: as above; details: Application herbicide amount 320 g/ha; foliage application
In short: as §1

Digitaria ciliaris = assay: as above; details: for F (Digitaria ciliaris) herbicidal effect grade: Application herbicide amount 320 g/ha, foliage application
In short: as §1

Scirpus juncoides = assay: Test Example 1: herbicidal activity, application before weed generation in submerged conditions; details: Application herbicide amount 320 g/ha; Seventeenth Table
In short: (§2)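 Rating, on a six-step scale from almost no effect (0) to almost completely withered (5), was made three weeks after pre-emergence treatment. Treatment was surface application to flooded pots at g/ha rates, with plants kept at 25° C. to 30° C.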

Monochoria vaginalis = assay: as above; details: Application herbicide amount 320 g/ha; Seventeenth Table
In short: as §2

[2] = test system: Echinochloa oryzacola Vasing.; assay: as above; details: Application herbicide amount 320 g/ha; Seventeenth Table
In short: as §2

Triticum aestivum = assay: Test Example 4: effect on crop by application to foliage (diluvial soil, plastic box); details: for e (Triticum aestivum) effect on crop grade: Application herbicide amount 320 g/ha, foliage application
In short: as §1

[3] = test system: directly sowed Oryza sativa; assay: as above; details: for b (directly sowed Oryza sativa) effect on crop grade: Application herbicide amount 320 g/ha, foliage application
In short: as §1

Zea mays = assay: as above; details: for c (Zea mays) effect on crop grade: Application herbicide amount 320 g/ha, foliage application
In short: as §1

Brassica campestris L. = assay: as above; details: for g (Brassica campestris L.) effect on crop grade: Application herbicide amount 320 g/ha, foliage application
In short: as §1

[4] = test system: Beta vulgaris ssp. vulgaris; assay: as above; details: for f (Beta vulgaris ssp. vulgaris) effect on crop grade: Application herbicide amount 320 g/ha, foliage application
In short: as §1

Glycine max = assay: as above; details: for d (Glycine max) effect on crop grade: Application herbicide amount 320 g/ha, foliage application
In short: as §1

[5] = test system: transplanted Oryza sativa; assay: Test Example 1: effect on crop, application before weed generation in submerged conditions; details: Application herbicide amount 320 g/ha; Seventeenth Table
In short: as §2

[6] = application to foliage, application herbicide amount 320 g/ha

SMILES	L (Apera spica-venti.) herbicidal effect grade (Apera spica-venti.)	K (Lolium multiflorum Lam.) herbicidal effect grade (Lolium multiflorum Lam.)	I (Avena fatua) herbicidal effect grade (Avena fatua)	R (Veronica persica) herbicidal effect grade (Veronica persica)	N (Amaranthus retroflexus) herbicidal effect grade (Amaranthus retroflexus)	G (Setaria viridis) herbicidal effect grade (Setaria viridis)	J (Alopecurus myosuroides) herbicidal effect grade (Alopecurus myosuroides)	H (Echinochloa crus-galli var. crus-galli) herbicidal effect grade [1]	O (Chenopodium album) herbicidal effect grade (Chenopodium album)	P (Stellaria media) herbicidal effect grade (Stellaria media)	M (Abutilon theophrasti) herbicidal effect grade (Abutilon theophrasti)	Q (Galium spurium) herbicidal effect grade (Galium spurium)	F (Digitaria ciliaris) herbicidal effect grade (Digitaria ciliaris)	B: Scirpus juncoides (herbicidal effect grade) (Scirpus juncoides)	C: Monochoria vaginalis (herbicidal effect grade) (Monochoria vaginalis)	A: Echinochloa oryzicola Vasing. (herbicidal effect grade) [2]	e (Triticum aestivum) effect on crop grade (Triticum aestivum)	b (directly sowed Oryza sativa) effect on crop grade [3]	c (Zea mays) effect on crop grade (Zea mays)	a: transplanted Oryza sativa (effect on crop grade) [5]	further results
Cc1nnc(NC(=O)c2ccc(C(F)(F)F)n3c(C4(C)CC4(Cl)Cl)nnc23)o1 (centres unmarked) [1-105]	1 (Herbicidal ratio of 5% or more and less than 20%)	1 (Herbicidal ratio of 5% or more and less than 20%)	1 (Herbicidal ratio of 5% or more and less than 20%)	3 (Herbicidal ratio of 40% or more and less than 70%)	3 (Herbicidal ratio of 40% or more and less than 70%)	1 (Herbicidal ratio of 5% or more and less than 20%)	1 (Herbicidal ratio of 5% or more and less than 20%)	4 (Herbicidal ratio of 70% or more and less than 90%)	5 (Herbicidal ratio of 90% or more (almost completely withered))	4 (Herbicidal ratio of 70% or more and less than 90%)	3 (Herbicidal ratio of 40% or more and less than 70%)	1 (Herbicidal ratio of 5% or more and less than 20%)	4 (Herbicidal ratio of 70% or more and less than 90%)	5 (Herbicidal ratio of 90% or more (almost completely withered))	4 (Herbicidal ratio of 70% or more and less than 90%)	5 (Herbicidal ratio of 90% or more (almost completely withered))	1 (Herbicidal ratio of 5% or more and less than 20%)	0 (Herbicidal ratio of 5% or less (almost no effect))	1 (Herbicidal ratio of 5% or more and less than 20%)	0 (Herbicidal ratio of 5% or less (almost no effect))	g (Brassica campestris L.) effect on crop grade (Brassica campestris L.): 3 (Herbicidal ratio of 40% or more and less than 70%); f (Beta vulgaris ssp. vulgaris) effect on crop grade [4]: 4 (Herbicidal ratio of 70% or more and less than 90%); d (Glycine max) effect on crop grade (Glycine max): 2 (Herbicidal ratio of 20% or more and less than 40%)
CCSc1nnc2c(C(=O)Nc3nnco3)ccc(C(F)(F)F)n12 [1-106]	3 (Herbicidal ratio of 40% or more and less than 70%)	3 (Herbicidal ratio of 40% or more and less than 70%)	4 (Herbicidal ratio of 70% or more and less than 90%)	5 (Herbicidal ratio of 90% or more (almost completely withered))	5 (Herbicidal ratio of 90% or more (almost completely withered))	5 (Herbicidal ratio of 90% or more (almost completely withered))	1 (Herbicidal ratio of 5% or more and less than 20%)	5 (Herbicidal ratio of 90% or more (almost completely withered))	5 (Herbicidal ratio of 90% or more (almost completely withered))	5 (Herbicidal ratio of 90% or more (almost completely withered))	4 (Herbicidal ratio of 70% or more and less than 90%)	4 (Herbicidal ratio of 70% or more and less than 90%)	5 (Herbicidal ratio of 90% or more (almost completely withered))	5 (Herbicidal ratio of 90% or more (almost completely withered))	4 (Herbicidal ratio of 70% or more and less than 90%)	5 (Herbicidal ratio of 90% or more (almost completely withered))	3 (Herbicidal ratio of 40% or more and less than 70%)	3 (Herbicidal ratio of 40% or more and less than 70%)	1 (Herbicidal ratio of 5% or more and less than 20%)	1 (Herbicidal ratio of 5% or more and less than 20%)	g (Brassica campestris L.) effect on crop grade (Brassica campestris L.): 4 (Herbicidal ratio of 70% or more and less than 90%); f (Beta vulgaris ssp. vulgaris) effect on crop grade [4]: 5 (Herbicidal ratio of 90% or more (almost completely withered)); d (Glycine max) effect on crop grade (Glycine max): 3 (Herbicidal ratio of 40% or more and less than 70%)
CC(C)c1nnc2c(C(=O)N(C)c3nnnn3C)ccc(C(F)(F)F)n12 [2-023]	–	–	–	–	–	–	–	–	–	–	–	–	–	1 (Herbicidal ratio of 5% or more and less than 20%)	0 (Herbicidal ratio of 5% or less (almost no effect))	2 (Herbicidal ratio of 20% or more and less than 40%)	–	–	–	3 (Herbicidal ratio of 40% or more and less than 70%)	L: herbicidal effect on Apera spica-venti. (Apera spica-venti.; [6]): 0 (Herbicidal ratio of 5% or less (almost no effect)); K: herbicidal effect on Lolium multiflorum Lam. (Lolium multiflorum Lam.; [6]): 0 (Herbicidal ratio of 5% or less (almost no effect)); I: herbicidal effect on Avena fatua (Avena fatua; [6]): 0 (Herbicidal ratio of 5% or less (almost no effect)); R: herbicidal effect on Veronica persica (Veronica persica; [6]): 4 (Herbicidal ratio of 70% or more and less than 90%); N: herbicidal effect on Amaranthus retroflexus (Amaranthus retroflexus; [6]): 5 (Herbicidal ratio of 90% or more (almost completely withered)); G: herbicidal effect on Setaria viridis (Setaria viridis; [6]): 1 (Herbicidal ratio of 5% or more and less than 20%); J: herbicidal effect on Alopecurus myosuroides (Alopecurus myosuroides; [6]): 0 (Herbicidal ratio of 5% or less (almost no effect)); H: herbicidal effect on Echinochloa crus-galli var. crus-galli [1, 6]: 4 (Herbicidal ratio of 70% or more and less than 90%); O: herbicidal effect on Chenopodium album (Chenopodium album; [6]): 4 (Herbicidal ratio of 70% or more and less than 90%); P: herbicidal effect on Stellaria media (Stellaria media; [6]): 3 (Herbicidal ratio of 40% or more and less than 70%); M: herbicidal effect on Abutilon theophrasti (Abutilon theophrasti; [6]): 3 (Herbicidal ratio of 40% or more and less than 70%); F: herbicidal effect on Digitaria ciliaris (Digitaria ciliaris; [6]): 1 (Herbicidal ratio of 5% or more and less than 20%); e: effect on crop, Triticum aestivum (Triticum aestivum; [6]): 0 (Herbicidal ratio of 5% or less (almost no effect)); b: effect on crop, directly sowed Oryza sativa [3, 6]: 0 (Herbicidal ratio of 5% or less (almost no effect)); c: effect on crop, Zea mays (Zea mays; [6]): 0 (Herbicidal ratio of 5% or less (almost no effect)); g: effect on crop, Brassica campestris L. (Brassica campestris L.; [6]): 1 (Herbicidal ratio of 5% or more and less than 20%); f: effect on crop, Beta vulgaris ssp. vulgaris [4, 6]: 4 (Herbicidal ratio of 70% or more and less than 90%); d: effect on crop, Glycine max (Glycine max; [6]): 1 (Herbicidal ratio of 5% or more and less than 20%)
